Literature values as cited in the CATMoS acute toxicity set (Mansouri et al. 2021).

Assay: rat acute oral toxicity
Details: in vivo

Row | Compound | LD50 [mg/kg]
1 | CCSCCOc1ccc([N+](=O)[O-])cc1 | 826
2 | OCCN1CCN(CCC=C2c3ccccc3Sc3ccc(C(F)(F)F)cc32)CC1 | 791
3 | C/C=C/Cl | 1950
4 | CCCCC(CC)COC(CBr)c1ccccc1 (configuration not stated) | 250
5 | CN(C)/N=N/c1ccccc1C(=N)O | 56
6 | FC(F)(F)c1nc2cc(Cl)c(Cl)cc2[nH]1 | 7.88
7 | COc1ccc2c(c1)-c1c(ccc(OC)c1O)CC(CCc1ccccc1)N(C)CC2 (configuration not stated) | 500
8 | Cl/C(=N/Nc1c(Cl)cc(Cl)cc1Cl)c1ccccc1 | 718
9 | COc1ccccc1OC | 890
10 | CN1CC(CC#N)CC2c3cccc4[nH]c(Cl)c(c34)CC21 (configuration not stated) | 290
11 | C=CSC=C | 170
12 | Oc1ccc2nc(C(F)(F)F)[nH]c2c1 | 41
13 | COP(=O)(OC)OC(=CBr)c1ccc(Cl)cc1Cl | 225
14 | OC(CCCN1CCCCC1)(c1ccccc1)c1ccccc1 | 515
15 | CC1COC2(c3ccccc3Cl)c3cc(Cl)ccc3NC(=O)CN12 (configuration not stated) | 4500
16 | COC(C)C=O (configuration not stated) | 940
17 | CC1CC2OC2CC1COC(=O)CCCCC(=O)OCC1CC2OC2CC1C (configuration not stated) | 4290
18 | CCC(C)OC(CBr)c1cccc(Cl)c1 (configuration not stated) | 250
19 | CCS(=O)(=O)CCn1c([N+](=O)[O-])cnc1C | 2710
20 | Nc1nc2ccc(Cl)cc2o1 | 226
21 | CCOC(=O)C(NCCNC(C(=O)OCC)c1ccccc1O)c1ccccc1O (configuration not stated) | 800
22 | FC(F)(F)c1nc2cc(Br)c(Cl)cc2[nH]1 | 9.04
23 | Cc1nn(C)c2c1NCc1ccccc1O2 | 1360
24 | C1CCC2OCCOCCOCCOC3CCCCC3OCCOCCOCCOC2C1 (configuration not stated) | 75

Row | Compound | LD50 [mg/kg]
25 | COc1cc(C(O)C(C)NC(C)COc2ccccc2)ccc1O (configuration not stated) | 1280
26 | CCc1ccc([N+]([O-])=Cc2ccccc2)cc1 | 1340
27 | CC(C)(C#N)Nc1nc(Cl)nc(NC2CC2)n1 | 290
28 | CCCCCOC(CBr)c1ccc(C2CCCCC2)cc1 (configuration not stated) | 250
29 | CSC | 3300
30 | CC(C)N=C1SC(=NOC(=O)N(C)SC(Cl)(Cl)Cl)C(C)(C)S1 | 226
31 | OP(OCCCl)OCCCl | 260
32 | CC(=O)N(C)C(=O)Oc1cccc(C(C)(C)C)c1 | 1000
33 | CCCCCCC#CC(=O)OC | 2220
34 | CN(C)CCNN | 2110
35 | CC(=O)OCc1ccc2c(c1)OCO2 | 2100
36 | COP(=S)(OC)SC1CSC=CO1 (configuration not stated) | 100
37 | Cc1ccccc1CN(C)N=O | 90
38 | CCCN=C(C(OC)c1ccccc1)N1CCCCCC1 (configuration not stated) | 55
39 | NCC(c1cccs1)N1CCCCC1 (configuration not stated) | 1480
40 | Cc1cc2[nH]c(C(F)(F)F)nc2cc1Cl | 55
41 | CCSP(SCC)SCC | 355
42 | CCC1OC1(C)C (configuration not stated) | 3500
43 | FC(Cl)C(F)(Cl)Cl (configuration not stated) | 7800
44 | C=CCc1ccccc1OCC(O)CNC(C)C (configuration not stated) | 590
45 | CCCCC(CC)COC(C)=O (configuration not stated) | 3000
46 | CCNc1nc(NC(C)C(C)C)nc(SC)n1 (configuration not stated) | 3000
47 | O=C(OCc1ccccc1)c1sc(Cl)nc1C(F)(F)F | 5010
48 | CCc1oc2ccccc2c1C(=O)c1cc(Br)c(O)c(Br)c1 | 248

Row | Compound | LD50 [mg/kg]
49 | COc1nc(C)nc(NC(=O)NS(=O)(=O)c2ccccc2CCC(F)(F)F)n1 | 986
50 | C#CC(=O)O | 100
51 | O=C1CCCCC1(CCN1CCCCCC1)C(=O)OCc1ccccc1 (configuration not stated) | 450
52 | Cc1cc(S(=O)(=O)O)c(N)cc1Cl | 12300
53 | CC(=O)Oc1ccc(Br)cc1C(=O)O | 1130
54 | CCOc1ccc(N(N=O)C(C)=O)cc1 | 21
55 | CCCn1c(=O)c2[nH]c(C)nc2n(CC(C)C)c1=O | 19
56 | CCCCN1C(=O)c2ccc([N+](=O)[O-])cc2C1=O | 1340
57 | CCCCNC(=S)Nc1ccccc1 | 150
58 | O=C1C(I)=CC(=C(c2cc(I)c(O)c(I)c2)c2ccccc2C(=O)O)C=C1I | 2800
59 | CCCNC(=O)C(C)Nc1ccc(OCC)cc1 (configuration not stated) | 3000
60 | COc1ccc2c(-c3ccc(OCC(O)CNC(C)C)cc3)c(-c3ccccc3)c(=O)oc2c1 (configuration not stated) | 1000
61 | CCC(=O)C(C)=O | 3000
62 | Nc1ccc(-c2ccc(-n3nc4ccc5c(S(=O)(=O)O)cc(S(=O)(=O)O)cc5c4n3)cc2)cc1S(=O)(=O)O | 9500
63 | CCCCCCCCCCCCCCCC(=O)OC/C=C(C)/C=C/C=C(C)/C=C/C1=C(C)CCCC1(C)C | 7910
64 | COS(=O)(=O)OC | 205
65 | Cc1ccccc1C(C)c1ccccc1 (configuration not stated) | 1750
66 | O=Cc1ccc(O)cc1 | 2250
67 | CN1CCN(CCCN2c3ccccc3Sc3ccc(Cl)cc32)CC1 | 1800
68 | Nc1ccc2c(O)cc(S(=O)(=O)O)cc2c1 | 11500
69 | CC(C)(S)C(N)C(=O)O (racemic) | 365
70 | COc1ccc(CC(=S)N(C)C)cc1 | 22
71 | CC(C(C)(C)C)C(C)(C)SSSC(C)(C)C(C)C(C)(C)C (configuration not stated) | 19600
72 | COP(=S)(Oc1ccc([N+](=O)[O-])cc1)Oc1ccc([N+](=O)[O-])cc1 | 312
